Read-outs that look alike come from different tables or passages of the source.
What was measured:
[1] = tested on: human chronic myelocytic leukemia K562 cells; assay: Growth inhibition test (MTS); format: cell-based; conditions: 72 hours
Method: (§1) Ten thousand cells of human chronic myelocytic leukemia K562 were inoculated into each well of a 96-well microplate (manufactured by Corning Corp.) using Iscove's MDM medium (culture medium) containing 10% fetal calf serum (FCS). The same day, a dimethyl sulfoxide (DMSO) solution of each test compound prepared in a concentration of 10 mmol/L was further diluted with DMSO to the desired concentrations (0.1, 0.5, 1, 2.5, 5 and 10 micromol/L), and the diluted solution was added to each well. The individual wells were further cultured in 5% carbon dioxide at 37° C. for 72 hours. After completion of the culture, 10 μl MTS (3-(4,5-Dimethyl-2-thiazolyl)-5-(carboxymethoxyphenyl)-2-(4-sulfophenyl)-2H-tetrazolium, inner salt assay (CellTiter96® AQueous One Solution Cell Proliferation Assay, Promega) was added to each well, and culturing was performed in 5% carbon dioxide at 37° C. for 2 hours. Using a microplate spectrophotometer (Synergy 2 multi-mode microplate reader (BioTek)), the absorbance of each well was measured at 490 nm. The value for cells not incorporated with a test compound was designated as 100%. By comparing these values with the absorbance difference obtained at the well in which each test compound was added, the cell viability (% viability) after treatment with the test compound was calculated.

[2] = tested on: human acute myeloid leukemia MOLM-13 cells; assay: Growth inhibition test (MTS); format: cell-based; conditions: MOLM13, 72 hours, read-out: Cytotoxicity in MTS assay (ED50)
Method: as §1, with “acute myeloid” for “human chronic myelocytic”, “MOLM-13” for “K562”, “RPMI 8226” for “Iscove's MDM”

[3] = tested on: human myelomonocytic, biphenotypic leukemia MV4-11 cells; assay: Growth inhibition test (MTS); format: cell-based; conditions: MV-4-11, 72 hours, read-out: Cytotoxicity in MTS assay (ED50)
Method: as §1, with “myelomonocytic, biphenotypic” for “chronic myelocytic”, “MV4-11” for “K562”

[4] = tested on: human acute lymphocytic leukemia E6.1 Jurkat cells; assay: Growth inhibition test (MTS); format: cell-based; conditions: 72 hours, read-out: Cytotoxicity in MTS assay (ED50)
Method: as §1, with “Twenty” for “Ten”, “acute lumphocytic” for “chronic myelocytic”, “E6.1 Jurkat” for “K562”, “[…]” for “Iscove's MDM”

PIM1 = PIM1 (Homo sapiens, UniProt P11309); assay: Radiometric kinase assay (HotSpot); conditions: for Selectivity for Pim-1 over CK2α: ratio of IC50 values
Chain of PIM1 (P11309 whole entry): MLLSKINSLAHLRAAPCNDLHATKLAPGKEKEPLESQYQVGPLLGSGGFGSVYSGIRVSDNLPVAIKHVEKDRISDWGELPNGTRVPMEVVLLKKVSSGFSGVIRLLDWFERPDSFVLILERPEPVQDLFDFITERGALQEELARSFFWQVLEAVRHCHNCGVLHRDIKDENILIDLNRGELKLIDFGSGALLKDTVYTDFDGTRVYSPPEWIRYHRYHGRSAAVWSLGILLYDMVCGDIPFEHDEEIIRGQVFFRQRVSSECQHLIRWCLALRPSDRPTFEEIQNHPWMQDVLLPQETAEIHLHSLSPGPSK
Method: (§2) Kinase assays were performed at Reaction Biology Corporation (www.reactionbiology.com, Malvern Pa.) using the “HotSpot” assay platform. This assay platform is based on a radiometric filtration binding assay and is considered as the “gold standard” to which non-radiometric methods are compared. In this assay format, the kinase reaction is performed in the presence of 32 P-γ-ATP or 33 P-γ-ATP, followed by binding of the final radioisotope labeled peptide product to filters after which unreacted phosphate is washed away and the levels of phosphorylated peptide are measured.

PIM2 = PIM2 (Homo sapiens, UniProt Q9P1W9); assay: Radiometric kinase assay (HotSpot); conditions: for Selectivity for Pim-2 over CK2α: ratio of IC50 values
Chain of PIM2 (Q9P1W9 whole entry): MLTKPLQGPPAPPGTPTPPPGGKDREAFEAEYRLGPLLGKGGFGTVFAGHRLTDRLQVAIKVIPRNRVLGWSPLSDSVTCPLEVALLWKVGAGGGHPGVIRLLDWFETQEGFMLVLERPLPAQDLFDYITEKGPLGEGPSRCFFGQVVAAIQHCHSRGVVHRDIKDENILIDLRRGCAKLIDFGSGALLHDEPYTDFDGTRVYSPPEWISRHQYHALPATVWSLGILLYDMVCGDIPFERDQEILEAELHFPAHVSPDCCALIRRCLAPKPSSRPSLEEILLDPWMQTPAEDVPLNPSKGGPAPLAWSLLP
Method: as §2

PIM3 = PIM3 (Homo sapiens, UniProt Q86V86); assay: Radiometric kinase assay (HotSpot); conditions: for Selectivity for Pim-3 over CK2α: ratio of IC50 values
Method: as §2

[5] = read-out: Inhibitory activity (IC50 in nM) in radiometric cell free assay, Pim-1, ATP 1 μM, peptide 5 μM
[6] = read-out: Inhibitory activity (IC50 in nM) in radiometric cell free assay, Pim-2, ATP 1 μM, peptide 5 μM
[7] = read-out: Inhibitory activity (IC50 in nM) in radiometric cell free assay, Pim-3, ATP 1 μM, peptide 20 μM

SMILES | Cytotoxicity in MTS assay (ED50) [1] [nM] | IC50 [2] [nM] | IC50 [3] [nM] | IC50 [4] [nM] | Selectivity for Pim-1 over CK2α (PIM1) | IC50 (PIM1; [5]) [nM] | Selectivity for Pim-2 over CK2α (PIM2) | IC50 (PIM2; [6]) [nM] | Selectivity for Pim-3 over CK2α (PIM3) | IC50 (PIM3; [7]) [nM] | IC50 ([2]; Homo sapiens, MOLM-13) [nM] | IC50 ([3]; Homo sapiens, MV4-11) [nM] | IC50 ([4]; Homo sapiens) [nM] | IC50 (PIM1) [nM] | IC50 (PIM2) [nM] | IC50 (PIM3) [nM]
Brc1c(Br)c(Br)c2c(Br)n[nH]c2c1Br [Compound K64, reference compound] | >10000 | >10000 | >10000 | >10000 | 2.1 | 308 | 0.7 | 871 | 3.0 | 212 | – | – | – | – | – | –
Brc1c(Br)c(Br)c2[nH]cnc2c1Br [TBI, reference compound] | >10000 | 9720 | >10000 | >10000 | – | 1670 | – | > 20000 | – | 2940 | – | – | – | – | – | –
Brc1c(Br)c(Br)c2[nH]c(NCCN3CCCCC3)nc2c1Br [Compound 13, 4,5,6,7-tetrabromo-N-(2-(piperidin-1-yl)ethyl)-1H-benzo[d]imidazol-2-amine] | – | – | – | – | 98.2 | – | 2.5 | – | 37.3 | – | 2180 | 3160 | 1340 | 23.1 | 897 | 60.7
NCCCNc1nc2c(Br)c(Br)c(Br)c(Br)c2[nH]1 [Compound 11, N-(3-aminopropyl)-4,5,6,7-tetrabromo-1H-benzo[d]imidazol-2-amine] | 7480 | – | – | – | 211.7 | – | 10.3 | – | 43.6 | – | 1370 | 1780 | 1750 | 4.8 | 98.2 | 23.3
CN(C)c1nc2c(Br)c(Br)c(Br)c(Br)c2n1CC(=O)O [Compound K66, reference compound] | >10000 | >10000 | >10000 | >10000 | 1.1 | 194 | 0.2 | 954 | 2.1 | 96.3 | – | – | – | – | – | –
Brc1c(Br)c(Br)c2[nH]nnc2c1Br [TBB, reference compound] | >10000 | >10000 | >10000 | >10000 | – | 1840 | – | > 20000 | – | 269 | – | – | – | – | – | –
CN1CCN(c2nc3c(Br)c(Br)c(Br)c(Br)c3[nH]2)CC1 [Compound 21, 4,5,6,7-tetrabromo-2-(4-methylpiperazin-1-yl)-1H-benzo[d]imidazole] | – | – | – | – | 27.6 | – | 1.1 | – | 21.7 | – | 1610 | 3780 | 2630 | 66.1 | 1690 | 84.1
Brc1c(Br)c(Br)c2[nH]c(NCCN3CCOCC3)nc2c1Br [Compound 16, 4,5,6,7-tetrabromo-N-(2-morpholinoethyl)-1H-benzo[d]imidazol-2-amine] | – | – | – | – | 101.6 | – | 2.3 | – | 60.1 | – | 4660 | 2170 | 2460 | 67.7 | 3010 | 114
Brc1c(Br)c(Br)c2[nH]c(N3CCNCC3)nc2c1Br [Compound 20, 4,5,6,7-tetrabromo-2-(piperazin-1-yl)-1H-benzo[d]imidazole] | 7250 | – | – | – | 1.7 | – | 0.4 | – | 3.1 | – | 1590 | 790 | 2190 | 76.9 | 326 | 42
CN(C)c1nc2c(Br)c(Br)c(Br)c(Br)c2[nH]1 [DMAT, reference compound] | >10000 | – | 3150 | 8180 | – | 64.6 | – | 2460 | – | 87.3 | – | – | – | – | – | –
Brc1c(Br)c(Br)c2[nH]c(NCCN3CCCC3)nc2c1Br [Compound 14, 4,5,6,7-tetrabromo-N-(2-(pyrrolidin-1-yl)ethyl)-1H-benzo[d]imidazol-2-amine] | – | – | – | – | 19.0 | – | 1.3 | – | 29.6 | – | 1450 | 1290 | 2650 | 43.8 | 618 | 28.2

— US20110230481A2, “DERIVATIVES OF TETRABROMOBENZIMIDAZOLE, A PROCESS FOR THE PREPARATION THEREOF, A PHARMACEUTICAL COMPOSITION COMPRISING THE SAME, A METHOD OF USING THE SAME, A METHOD FOR MODULATING OR REGULATING SERINE/THREONINE KINASES, AND SERINE/THREONINE KINASES MODULATING AGENT” (SELVITA S.A., priority 2009, published 2011)
